Laboratory results from patent US7833967B2, “Synthetic antimicrobial polypeptides” (priority 2003, dated 2010).

Tested on: E. coli TOP10
Test: Suicide expression system (SES) growth inhibition
Type: cell-based
[1] = Table 5, mixed-motif library, re-tested in the Bioscreen C
[2] = Table 3, variants of SEQ ID NO:5, re-tested in the Bioscreen C
[3] = Table 4, variants of SEQ ID NO:10, re-tested in the Bioscreen C
[4] = Table 1, 0.1% inducer (arabinose), pBAD/gIIIA in E. coli TOP10, Bioscreen C 37° C., end point OD450 vs control vector

With “214 (RRRPPRLPRPFPFRPPPRLPRPIPLRP; Synthetic antimicrobial peptide) [compound 214]” the “Growth inhibition (%)” value [1] was 95%.
With “259 (RRRPPRLPRPIPVRPPPRFPRPIPVRP; Synthetic antimicrobial peptide) [compound 259]” the “Growth inhibition (%)” value [1] was 98%.
“272 (RRRPPRLPRPLPIRPPPRFPRPIPVRP; Synthetic antimicrobial peptide) [compound 272]” was tested, and the “Growth inhibition (%)” value [1] was 91%.
“45 (RRRPRPFPRPFPRPLPRPIPRPFPRPV; Synthetic antimicrobial peptide) [compound 45]” was tested, and the “Growth inhibition (%)” value [2] was 69%.
“235 (RRRPPRLPRPFPLRPPPRVPRPVPFRP; Synthetic antimicrobial peptide) [compound 235]” was tested, and the “Growth inhibition (%)” value [1] was 94%.
With “245 (RRRPPRLPRPFPVRPPPRVPRPFPVRP; Synthetic antimicrobial peptide) [compound 245]” the “Growth inhibition (%)” value [1] was 95%.
“174 (RRRPIRPPIRPPFRPPLRPPFRPPFRP; Synthetic antimicrobial peptide) [compound 174]” was tested, and the “Growth inhibition (%)” value [3] was 80%.
“53 (RRRPRPFPRPVPRPIPRPFPRPVPRPV; Synthetic antimicrobial peptide) [compound 53]” was tested, and the “Growth inhibition (%)” value [2] was 62%.
“239 (RRRPPRLPRPFPVRPPPRFPRPFPLRP; Synthetic antimicrobial peptide) [compound 239]” was tested, and the “Growth inhibition (%)” value [1] was 99%.
“186 (RRRPIRPPIRPPIRPPFRPPFRPPFRP; Synthetic antimicrobial peptide) [compound 186]” was tested, and the “Growth inhibition (%)” value [3] was 77%.
“105 (RRRPIRPPLRPPLRPPFRPPFRPPFRP; Synthetic antimicrobial peptide) [compound 105]” was tested, and the “Growth inhibition (%)” value [3] was 73%.
With “149 (RRRPIRPPIRPPFRPPFRPPVRPPVRP; Synthetic antimicrobial peptide) [compound 149]” the “Growth inhibition (%)” value [3] was 62%.
“200 (RRRPFRPPFRPPLRPPFRPPVRPPFRP; Synthetic antimicrobial peptide) [compound 200]” was tested, and the “Growth inhibition (%)” value [3] was 87%.
For “6 (RRRRPFPRPFPRPFPRPFPRPFPRPFP; Synthetic antimicrobial peptide) [compound 6]”, the “Growth inhibition (%)” value [4] was 57%.
In the case of “141 (RRRPIRPPIRPPFRPPFRPPLRPPIRP; Synthetic antimicrobial peptide) [compound 141]”, the “Growth inhibition (%)” value [3] is reported as 65%.
With “182 (RRRPFRPPIRPPFRPPIRPPVRPPFRP; Synthetic antimicrobial peptide) [compound 182]” the “Growth inhibition (%)” value [3] was 83%.
For “84 (RRRPIRPPLRPPIRPPFRPPFRPPLRP; Synthetic antimicrobial peptide) [compound 84]”, the “Growth inhibition (%)” value [3] was 80%.
“221 (RRRPPRLPRPFPIRPPPRFPRPLPFRP; Synthetic antimicrobial peptide) [compound 221]” was tested, and the “Growth inhibition (%)” value [1] was 93%.
In the case of “303 (RRRPPRLPRPVPLRPPPRVPRPLPIRP; Synthetic antimicrobial peptide) [compound 303]”, the “Growth inhibition (%)” value [1] is reported as 91%.
“193 (RRRPFRPPIRPPFRPPIRPPFRPPFRP; Synthetic antimicrobial peptide) [compound 193]” was tested, and the “Growth inhibition (%)” value [3] was 81%.
In the case of “247 (RRRPPRLPRPFPVRPPPRVPRPLPFRP; Synthetic antimicrobial peptide) [compound 247]”, the “Growth inhibition (%)” value [1] is reported as 93%.
In the case of “318 (RRRTRHVVPRPLPVRPPPRVPRPFPLRP; Synthetic antimicrobial peptide) [compound 318]”, the “Growth inhibition (%)” value [1] is reported as 93%.
With “91 (RRRPFRPPVRPPIRPPVRPPFRPPVRP; Synthetic antimicrobial peptide) [compound 91]” the “Growth inhibition (%)” value [3] was 52%.
With “155 (RRRPFRPPFRPPFRPPFRPPFRPPLRP; Synthetic antimicrobial peptide) [compound 155]” the “Growth inhibition (%)” value [3] was 83%.
For “109 (RRRPFRPPIRPPVRPPLRPPVRPPFRP; Synthetic antimicrobial peptide) [compound 109]”, the “Growth inhibition (%)” value [3] was 71%.
With “297 (RRRPPRLPRPVPFRPPPRVPRPIPVRP; Synthetic antimicrobial peptide) [compound 297]” the “Growth inhibition (%)” value [1] was 90%.
“138 (RRRPLRPPFRPPVRPPFRPPFRPPFRP; Synthetic antimicrobial peptide) [compound 138]” was tested, and the “Growth inhibition (%)” value [3] was 78%.
“123 (RRRPFRPPLRPPIRPPIRPPFRPPFRP; Synthetic antimicrobial peptide) [compound 123]” was tested, and the “Growth inhibition (%)” value [3] was 65%.
For “176 (RRRPLRPPVRPPIRPPIRPPFRPPFRP; Synthetic antimicrobial peptide) [compound 176]”, the “Growth inhibition (%)” value [3] was 81%.
For “163 (RRRPIRPPFRPPFRPPFRPPIRPPIRP; Synthetic antimicrobial peptide) [compound 163]”, the “Growth inhibition (%)” value [3] was 79%.
In the case of “208 (RRRPPRFPRPFPVRPPPRFPRPIPVRP; Synthetic antimicrobial peptide) [compound 208]”, the “Growth inhibition (%)” value [1] is reported as 95%.
With “292 (RRRPPRLPRPLPVRPPPRVPRPVPFRP; Synthetic antimicrobial peptide) [compound 292]” the “Growth inhibition (%)” value [1] was 93%.
With “83 (RRRPLRPPFRPPIRPPVRPPFRPPVRP; Synthetic antimicrobial peptide) [compound 83]” the “Growth inhibition (%)” value [3] was 72%.
“73 (RRRPFRPPVRPPFRPPVRPPIRPPVRP; Synthetic antimicrobial peptide) [compound 73]” was tested, and the “Growth inhibition (%)” value [3] was 65%.
For “173 (RRRPLRPPIRPPLRPPVRPPFRPPFRP; Synthetic antimicrobial peptide) [compound 173]”, the “Growth inhibition (%)” value [3] was 81%.
In the case of “67 (RRRPLRPPLRPPIRPPFRPPVRPPFRP; Synthetic antimicrobial peptide) [compound 67]”, the “Growth inhibition (%)” value [3] is reported as 80%.
“80 (RRRPFRPPFRPPIRPPVRPPVRPPFRP; Synthetic antimicrobial peptide) [compound 80]” was tested, and the “Growth inhibition (%)” value [3] was 81%.
“140 (RRRPIRPPIRPPFRPPVRPPVRPPFRP; Synthetic antimicrobial peptide) [compound 140]” was tested, and the “Growth inhibition (%)” value [3] was 70%.
“130 (RRRPFRPPIRPPLRPPFRPPVRPPLRP; Synthetic antimicrobial peptide) [compound 130]” was tested, and the “Growth inhibition (%)” value [3] was 78%.
In the case of “13 (RRRPPRFPPRFPPRFPPRFPPRFPPRF; Synthetic antimicrobial peptide) [compound 13]”, the “Growth inhibition (%)” value (Table 2, variants of SEQ ID NO:1, re-tested in the Bioscreen C) is reported as 51%.
With “266 (RRRPPRLPRPLPFRPPPRLPRPVPVRP; Synthetic antimicrobial peptide) [compound 266]” the “Growth inhibition (%)” value [1] was 94%.
“240 (RRRPPRLPRPFPVRPPPRFPRPVPFRP; Synthetic antimicrobial peptide) [compound 240]” was tested, and the “Growth inhibition (%)” value [1] was 91%.
“78 (RRRPLRPPFRPPFRPPFRPPIRPPVRP; Synthetic antimicrobial peptide) [compound 78]” was tested, and the “Growth inhibition (%)” value [3] was 83%.
In the case of “269 (RRRPPRLPRPLPFRPPPRVPRPVPVRP; Synthetic antimicrobial peptide) [compound 269]”, the “Growth inhibition (%)” value [1] is reported as 90%.
“295 (RRRPPRLPRPVPFRPPPRIPRPFPLRP; Synthetic antimicrobial peptide) [compound 295]” was tested, and the “Growth inhibition (%)” value [1] was 59%.
In the case of “146 (RRRPLRPPFRPPIRPPFRPPFRPPLRP; Synthetic antimicrobial peptide) [compound 146]”, the “Growth inhibition (%)” value [3] is reported as 68%.
In the case of “311 (RRRPPRVPRPFPVRPPPRFPRPVPFRP; Synthetic antimicrobial peptide) [compound 311]”, the “Growth inhibition (%)” value [1] is reported as 96%.
With “128 (RRRPFRPPFRPPLRPPFRPPVRPPLRP; Synthetic antimicrobial peptide) [compound 128]” the “Growth inhibition (%)” value [3] was 69%.
“9 (RRRPPFRPPFRPPFRPPFRPPFRPPFR; Synthetic antimicrobial peptide) [compound 9]” was tested, and the “Growth inhibition (%)” value [4] was 67%.
“113 (RRRPLRPPVRPPFRPPVRPPFRPPFRP; Synthetic antimicrobial peptide) [compound 113]” was tested, and the “Growth inhibition (%)” value [3] was 75%.
With “115 (RRRPLRPPFRPPIRPPFRPPFRPPFRP; Synthetic antimicrobial peptide) [compound 115]” the “Growth inhibition (%)” value [3] was 79%.
For “104 (RRRPFRPPFRPPIRPPFRPPFRPPLRP; Synthetic antimicrobial peptide) [compound 104]”, the “Growth inhibition (%)” value [3] was 76%.
With “177 (RRRPFRPPIRPPFRPPIRPPVRPPIRP; Synthetic antimicrobial peptide) [compound 177]” the “Growth inhibition (%)” value [3] was 75%.
In the case of “169 (RRRPIRPPLRPPVRPPFRPPVRPPFRP; Synthetic antimicrobial peptide) [compound 169]”, the “Growth inhibition (%)” value [3] is reported as 67%.
“203 (RRRPFRPPIRPPFRPPIRPPFRPPFRP; Synthetic antimicrobial peptide) [compound 203]” was tested, and the “Growth inhibition (%)” value [3] was 79%.
With “121 (RRRPIRPPLRPPVRPPIRPPFRPPFRP; Synthetic antimicrobial peptide) [compound 121]” the “Growth inhibition (%)” value [3] was 65%.
“49 (RRRPRPFPRPLPRPVPRPFPRPVPRPL; Synthetic antimicrobial peptide) [compound 49]” was tested, and the “Growth inhibition (%)” value [2] was 51%.
With “81 (RRRPFRPPIRPPFRPPFRPPVRPPIRP; Synthetic antimicrobial peptide) [compound 81]” the “Growth inhibition (%)” value [3] was 80%.
In the case of “274 (RRRPPRLPRPLPIRPPPRFPRPVPVRP; Synthetic antimicrobial peptide) [compound 274]”, the “Growth inhibition (%)” value [1] is reported as 93%.
